Assay results: patent US10808005B2, “Ligand for orphan nuclear receptor Nur77 and uses thereof” (IXMEDICINE (XIAMEN) BIOLOGICAL TECHNOLOGY COMPANY LIMITED, priority 2016, dated 2020)
Where two headings read alike, the source gives them in different places. Each block holds one molecule with its values, some of them ahead of it.

What was measured:
MDA-MB-231 = assay: Proliferation of MDA-MB-231 breast cancer cells; type: cell-based; details: Homo sapiens
MDA-MB-231 cells = assay: Immunoblot of parp (apoptosis) in MDA-MB-231 cells; type: cell-based; details: 4 μM and TNFα (20 ng/ml)
[1] = tested on: BT474, ZR-75-1, BT549, HCC1937, HS578T, MCF-7, and T47D; assay: Inhibition rate on seven breast cancer cells; type: cell-based; details: various breast cancer cells, FIG. 11C
[2] = tested on: IκBα and phosphorylated IKKα/β; assay: Immunoblot of IκBα and phosphorylated IKKα/β in TNFα-treated HepG2 cells; type: cell-based; details: TNFα 20 ng/mL 30 minutes
Description: IκBα and phosphorylated IKKα/β in the cells were then detected by WB.
In addition, HepG2 cells were also applied in the experiment. […] IκBα in the cells was then detected by WB.

mTOR signaling pathway = assay: Immunoblot of p-mTOR, p-P70S6K, p-S6 in TNFα-treated starved MDA-MB-231 cells; type: cell-based; details: MDA-MB-231, serum-free 10 h; 2 μM and TNFα (20 ng/ml)
Nur77-LBD = Nur77-LBD (Homo sapiens, UniProt P22736); assay: Surface plasmon resonance (Biacore T200) binding to Nur77-LBD
MCF-7 = assay: Proliferation of MCF-7 breast cancer cells; type: cell-based; details: Homo sapiens, read-out: IC50 for inhibiting the proliferation
MDA-MB-468 = assay: Proliferation of MDA-MB-468 breast cancer cells; type: cell-based; details: Homo sapiens, MDA-MB-468, 72 h; read-out: IC50 for inhibiting the proliferation
BT549 = assay: Proliferation of BT549 breast cancer cells; type: cell-based; details: Homo sapiens, BT-549; BT549, 72 h; read-out: IC50 for inhibiting the proliferation
SKBR3 = assay: Proliferation of SKBR3 breast cancer cells; type: cell-based; details: Homo sapiens, SK-BR-3; SKBR3, 72 h; read-out: IC50 for inhibiting the proliferation
T47D = assay: Proliferation of T47D breast cancer cells; type: cell-based; details: Homo sapiens, 72 h, read-out: IC50 for inhibiting the proliferation
wild-type Hela cells = assay: Proliferation of wild-type Hela cells; type: cell-based; details: Homo sapiens
[3] = tested on: Nur77 knocked-out Hela cells; assay: Proliferation of Nur77 knocked-out Hela cells; type: cell-based; details: Homo sapiens
[4] = Acute toxicity model mice, histopathology; type: in vivo
Description: The tissue morphologies of the heart, liver, small intestine, white fat and kidney were observed by Histopathological method.

[5] = MDA-MB-231, FIG. 11B, read-out: IC50 for the inhibition of proliferation
[6] = Biacore T200, read-out: dissociation constant (Kd) to Nur77-LBD
[7] = single intragastric injection 200 mg/kg
[8] = single intraperitoneal injection 20 mg/kg

Nur77-LBD, sequence (P22736 360-595 limits assumed): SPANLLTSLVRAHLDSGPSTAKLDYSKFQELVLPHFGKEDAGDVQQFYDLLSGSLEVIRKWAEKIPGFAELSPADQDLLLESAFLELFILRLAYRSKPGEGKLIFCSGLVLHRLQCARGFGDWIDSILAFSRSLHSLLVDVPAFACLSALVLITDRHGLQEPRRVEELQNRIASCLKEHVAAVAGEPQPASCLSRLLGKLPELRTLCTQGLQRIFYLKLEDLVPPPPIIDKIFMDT

Compound: COC(=O)[C@]1(C)CC[C@]2(C)CC[C@]3(C)C4=CC=C5C(=CC(=O)C(O)=C5C)[C@]4(C)CC[C@@]3(C)[C@@H]2C1 [XS0077]
IC50 (MDA-MB-231; MDA-MB-231, read-out: IC50 for the inhibition of proliferation): 1840 nM | PARP cleavage in comparison with YXY101 (MDA-MB-231 cells): can more significantly induce PARP cleavage

Compound: CC1=C(O)C(=O)C=C2C1=CC=C1[C@@]2(C)CC[C@@]2(C)[C@@H]3C[C@](C)(C(=O)OCc4ccccc4)CC[C@]3(C)CC[C@]12C [XS0285]
inhibitory effects on proliferation compared with YXY101 [1]: close or even stronger than that of YXY101

Compound: COc1ccc(NC(=O)[C@]2(C)CC[C@]3(C)CC[C@]4(C)C5=CC=C6C(=CC(=O)C(O)=C6C)[C@]5(C)CC[C@@]4(C)[C@@H]3C2)cc1 [XS0287]
TNFα-induced degradation of IκBα [2]: capable of inhibiting TNFα-induced degradation of IκBα

Compound: Cc1c(O)c(O)cc2c1CCC1[C@@]2(C)CC[C@@]2(C)[C@@H]3C[C@](C)(C(=O)O)CC[C@]3(C)CC[C@]12C (stereo partly shown) [XS0335]
IC50 (MDA-MB-231; [5]): 1880 nM | P-mTOR, P-p70S6K, and P—S6 in comparison with YXY101 (mTOR signaling pathway): can more significantly reduce P-mTOR, P-p70S6K, and P—S6

Kd (Nur77-LBD; [6]): 1260 nM
Compound: CCOC(=O)OC1=C(C)C2=CC=C3[C@@](C)(CC[C@@]4(C)[C@@H]5C[C@](C)(C(=O)O)CC[C@]5(C)CC[C@]34C)C2=CC1=O [XS0394]
P-mTOR, P-p70S6K, and P—S6 in comparison with YXY101 (mTOR signaling pathway): can more significantly reduce P-mTOR, P-p70S6K, and P—S6

Kd (Nur77-LBD; [6]): 3670 nM
Compound: CCOC(=O)COC(=O)[C@]1(C)CC[C@]2(C)CC[C@]3(C)C4=CC=C5C(=CC(=O)C(O)=C5C)[C@]4(C)CC[C@@]3(C)[C@@H]2C1 [XS0418]
PARP cleavage in comparison with YXY101 (MDA-MB-231 cells): can more significantly induce PARP cleavage | P-mTOR, P-p70S6K, and P—S6 in comparison with YXY101 (mTOR signaling pathway): can more significantly reduce P-mTOR, P-p70S6K, and P—S6 | inhibitory effects on proliferation compared with YXY101 [1]: close or even stronger than that of YXY101

Compound: Cc1c(O)c(O)cc2c1CC=C1[C@@]2(C)CC[C@@]2(C)[C@@H]3C[C@](C)(C(=O)O)CC[C@]3(C)CC[C@]12C [XS0419]
Kd (Nur77-LBD): 404 nM | IC50 (MDA-MB-231; [5]): 1270 nM | PARP cleavage in comparison with YXY101 (MDA-MB-231 cells): can more significantly induce PARP cleavage | P-mTOR, P-p70S6K, and P—S6 in comparison with YXY101 (mTOR signaling pathway): can more significantly reduce P-mTOR, P-p70S6K, and P—S6 | inhibitory effects on proliferation compared with YXY101 [1]: close or even stronger than that of YXY101

Compound: CCOC(=O)[C@]1(C)CC[C@]2(C)CC[C@]3(C)C4=CC=C5C(=CC(=O)C(O)=C5C)[C@]4(C)CC[C@@]3(C)[C@@H]2C1 [XS0462]
inhibitory effects on proliferation compared with YXY101 [1]: close or even stronger than that of YXY101

Compound: [2H]C1C=C2[C@@](C)(CC[C@@]3(C)[C@@H]4C[C@](C)(C(=O)O)CC[C@]4(C)CC[C@]23C)c2cc(O)c(O)c(C)c21 (stereo partly shown) [XS0474]
Kd (Nur77-LBD): 2600 nM | IC50 (MDA-MB-231; [5]): 2930 nM | P-mTOR, P-p70S6K, and P—S6 in comparison with YXY101 (mTOR signaling pathway): can more significantly reduce P-mTOR, P-p70S6K, and P—S6

Compound: COP(=O)(OC)OC(=O)[C@]1(C)CC[C@]2(C)CC[C@]3(C)C4=CC=C5C(=CC(=O)C(O)=C5C)[C@]4(C)CC[C@@]3(C)[C@@H]2C1 [XS0486]
P-mTOR, P-p70S6K, and P—S6 in comparison with YXY101 (mTOR signaling pathway): can more significantly reduce P-mTOR, P-p70S6K, and P—S6

Kd (Nur77-LBD; [6]): 1280 nM | IC50 (MDA-MB-231; [5]): 1900 nM
Compound: CCCC(=O)OC1=C(C)C2=CC=C3[C@@](C)(CC[C@@]4(C)[C@@H]5C[C@](C)(C(=O)OC)CC[C@]5(C)CC[C@]34C)C2=CC1=O [XS0488]
inhibitory effects on proliferation compared with YXY101 [1]: close or even stronger than that of YXY101

Compound: CCOP(=O)(OCC)OC(=O)[C@]1(C)CC[C@]2(C)CC[C@]3(C)C4=CC=C5C(=CC(=O)C(O)=C5C)[C@]4(C)CC[C@@]3(C)[C@@H]2C1 [XS0491]
Kd (Nur77-LBD): 336 nM | P-mTOR, P-p70S6K, and P—S6 in comparison with YXY101 (mTOR signaling pathway): can more significantly reduce P-mTOR, P-p70S6K, and P—S6

Compound: CC1=C(O)C(=O)C=C2C1=CC=C1[C@@]2(C)CC[C@@]2(C)[C@@H]3C[C@](C)(C(=O)OP(=O)(OC(C)C)OC(C)C)CC[C@]3(C)CC[C@]12C [XS0492]
Kd (Nur77-LBD; [6]): 1300 nM | PARP cleavage in comparison with YXY101 (MDA-MB-231 cells): can more significantly induce PARP cleavage | P-mTOR, P-p70S6K, and P—S6 in comparison with YXY101 (mTOR signaling pathway): can more significantly reduce P-mTOR, P-p70S6K, and P—S6

Compound: Cc1c(O)c(O)cc2c1CC=C1[C@@]2(C)CC[C@@]2(C)[C@@H]3C[C@](C)(CO)CC[C@]3(C)CC[C@]12C [XS0503]
IC50 (MDA-MB-231; MDA-MB-231, 24 h, read-out: IC50 for inhibiting the proliferation): 1190 nM | IC50 (MCF-7; MCF7, MCF-7, 24 h): 2650 nM

Compound: COC(=O)[C@]1(C)CC[C@]2(C)CC[C@]3(C)C4=CC(S(=O)(=O)[O-])c5c(cc(O)c(O)c5C)[C@]4(C)CC[C@@]3(C)[C@@H]2C1.[Na+] (stereo partly shown) [XS0508]
PARP cleavage in comparison with YXY101 (MDA-MB-231 cells): can more significantly induce PARP cleavage

Compound: CC1=C(O)C(=O)C=C2C1=CC=C1[C@@]2(C)CC[C@@]2(C)[C@@H]3C[C@](C)(C(=O)O)CC[C@]3(C)CC[C@]12C [YXY101, Celastrol]
IC50 (MDA-MB-231; MDA-MB-231, 72 h, read-out: IC50 for inhibiting the proliferation): 1200 nM | IC50 (MDA-MB-468): 187 nM | IC50 (BT549): 245 nM | IC50 (SKBR3): 2650 nM | IC50 (T47D): 74500 nM | IC50 (MCF-7; MCF7, 72 h): 11500 nM | IC50 (wild-type Hela cells): 1190 nM | IC50 [3]: 58200 nM | adipose tissue morphology [4, 7]: the adipose tissue cells were arranged disorderly and some of the fibers were broken | heart tissue morphology [4, 7]: arranged disorderly | liver tissue morphology [4, 7]: the lobuli hepatis boundaries were blurred, the cytoplasm was reduced, and most of the hepatocytes died | small intestine tissue morphology [4, 7]: the intestinal tissue was swollen apparently, the cell death increases, the inflammatory reaction was obvious, the intestinal villi were arranged disorderly | adipose tissue morphology [4, 8]: the adipose tissue cells were arranged disorderly and had many inflammatory cell infiltration | heart tissue morphology [4, 8]: arranged disorderly | kidney tissue morphology [4, 8]: the kidney tissue had blurred glomerulus boundaries and many inflammatory cell infiltration, and the arrangement was not neat | liver tissue morphology [4, 8]: the lobuli hepatis had substantially obvious boundaries, the hepatocytes were plump and had normal morphology
